What was measured:
bedstraw = test: Test B pre/postemergence bedstraw; format: in vivo, Galium aparine
Summary of the method: (§1)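 Herbicidal effect was estimated by eye on a ten-point control scale after plants spent twelve to sixteen days in a greenhouse following soil or foliar treatment. Foliar sprays targeted plants at one to four leaves; all doses were formulated in a non-phytotoxic solvent with surfactant.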

blackgrass = test: Test B pre/postemergence blackgrass; format: in vivo, Alopecurus myosuroides
Summary of the method: as §1

surinam grass = test: Test B pre/postemergence surinam grass; format: in vivo, Brachiaria decumbens
Summary of the method: as §1

cocklebur = test: Test B pre/postemergence cocklebur; format: in vivo, Xanthium strumarium
Summary of the method: as §1

corn = test: Test B pre/postemergence corn; format: in vivo, Zea mays
Summary of the method: as §1

giant foxtail = test: Test B pre/postemergence giant foxtail; format: in vivo, Setaria faberii
Summary of the method: as §1

morningglory = test: Test B pre/postemergence morningglory; format: in vivo, Ipomoea hederacea
Summary of the method: as §1

pigweed = test: Test B pre/postemergence pigweed; format: in vivo, Amaranthus retroflexus
Summary of the method: as §1

rape = test: Test B pre/postemergence rape; format: in vivo, Brassica napus
Summary of the method: as §1

soybean = test: Test B pre/postemergence soybean; format: in vivo, Glycine max
Summary of the method: as §1

sugar beet = test: Test B pre/postemergence sugar beet; format: in vivo, Beta vulgaris
Summary of the method: as §1

velvetleaf = test: Test B pre/postemergence velvetleaf; format: in vivo, Abutilon theophrasti
Summary of the method: as §1

purple nutsedge = test: Test B pre/postemergence purple nutsedge; format: in vivo, Cyperus rotundus
Summary of the method: as §1

smallflower flatsedge = test: Test B flood test smallflower flatsedge; format: in vivo, Cyperus difformis
Summary of the method: (§2)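 Flood test on plants grown to the 2-leaf stage; treated plants kept in greenhouse twelve to sixteen days, then visually rated against controls on a 0 (no effect) to 10 (complete control) scale.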

duck salad = test: Test B flood test duck salad; format: in vivo, Heteranthera limosa
Summary of the method: as §2

bamyardgrass = test: Test B flood test barnyardgrass; format: in vivo, Echinochloa crus-galli
Summary of the method: as §2

[1] = Postemergence, Rate 62 g/ha, scale 0 to 10, 0 is no effect, 10 is complete control
[2] = Postemergence, Rate 250 g/ha, scale 0 to 10, 0 no effect, 10 complete control
[3] = Preemergence, Rate 62 g/ha, scale 0 to 10 (0 no effect, 10 complete control)
[4] = Preemergence, Rate 125 g/ha, scale 0 to 10 (0 no effect, 10 complete control)
[5] = Preemergence, Rate 250 g/ha, scale of 0 to 10 where 0 is no effect and 10 is complete control
[6] = Preemergence, Rate 500 g/ha, scale 0 (no effect) to 10 (complete control)
[7] = Rate 125 g/ha, Postemergence, scale 0 to 10, 0 no effect, 10 complete control
[8] = Rate 500 g/ha, Postemergence, scale 0 to 10, 0 no effect, 10 complete control
[9] = Rate 125 g/ha, Postemergence section (flood test species), scale 0 to 10, 0 no effect, 10 complete control
[10] = Rate 500 g/ha, listed under Postemergence (flood test species), scale 0 to 10, 0 no effect, 10 complete control
[11] = flood test, listed under Postemergence, Rate 250 g/ha, scale 0 to 10, 0 no effect, 10 complete control

CCN(CC)C(=O)n1oc(=O)n(Cc2cccs2)c1=O [Compound 77]
6: Nutsedge plant response rating (purple nutsedge; [6])
4: Blackgrass plant response rating (blackgrass; [8]) | Cocklebur plant response rating (cocklebur; [8])
3: Plant response rating, Giant foxtail (giant foxtail; [5]) | Rape plant response rating (rape; [8]) | Velvetleaf plant response rating (velvetleaf; [6]) | Plant response rating, Nutsedge (purple nutsedge; [5]) | S. Flatsedge plant response rating (smallflower flatsedge; [10])
5: Giant foxtail plant response rating (giant foxtail; [6])
1: Soybean plant response rating (soybean; [2]) | Soybean plant response rating (soybean; [8])
2: B. signalgrass plant response rating (surinam grass; Rate 500 g/ha, Postemergence, scale of 0 to 10 where 0 is no effect and 10 is complete control) | Giant foxtail plant response rating (giant foxtail; [8]) | Plant response rating, Nutsedge (purple nutsedge; [4])
0: Bedstraw plant response rating (bedstraw; [1]) | Bedstraw plant response rating (bedstraw; [2]) | Bedstraw plant response rating (bedstraw; [3]) | Plant response rating, Bedstraw (bedstraw; [4]) | Plant response rating, Bedstraw (bedstraw; [5]) | Bedstraw plant response rating (bedstraw; [6]) | Bedstraw plant response rating (bedstraw; [7]) | Bedstraw plant response rating (bedstraw; [8]) | Blackgrass plant response rating (blackgrass; [1]) | Blackgrass plant response rating (blackgrass; [2]) | Blackgrass plant response rating (blackgrass; [3]) | Plant response rating, Blackgrass (blackgrass; [4]) | Plant response rating, Blackgrass (blackgrass; [5]) | Blackgrass plant response rating (blackgrass; [6]) | Blackgrass plant response rating (blackgrass; [7]) | B. signalgrass plant response rating (surinam grass; [1]) | B. signalgrass plant response rating (surinam grass; [2]) | B. signalgrass plant response rating (surinam grass; [3]) | Plant response rating, B. signalgrass (surinam grass; [4]) | Plant response rating, B. signalgrass (surinam grass; [5]) | B. signalgrass plant response rating (surinam grass; [6]) | B. signalgrass plant response rating (surinam grass; [7]) | Cocklebur plant response rating (cocklebur; [1]) | Cocklebur plant response rating (cocklebur; [2]) | Cocklebur plant response rating (cocklebur; [3]) | Plant response rating, Cocklebur (cocklebur; [4]) | Plant response rating, Cocklebur (cocklebur; [5]) | Cocklebur plant response rating (cocklebur; [6]) | Cocklebur plant response rating (cocklebur; [7]) | Corn plant response rating (corn; [1]) | Corn plant response rating (corn; [2]) | Corn plant response rating (corn; [3]) | Plant response rating, Corn (corn; [4]) | Plant response rating, Corn (corn; [5]) | Corn plant response rating (corn; [6]) | Corn plant response rating (corn; [7]) | Corn plant response rating (corn; [8]) | Giant foxtail plant response rating (giant foxtail; [1]) | Giant foxtail plant response rating (giant foxtail; [2]) | Giant foxtail plant response rating (giant foxtail; [3]) | Plant response rating, Giant foxtail (giant foxtail; [4]) | Giant foxtail plant response rating (giant foxtail; [7]) | Morningglory plant response rating (morningglory; [1]) | Morningglory plant response rating (morningglory; [2]) | Morningglory plant response rating (morningglory; [3]) | Plant response rating, Morningglory (morningglory; [4]) | Plant response rating, Morningglory (morningglory; [5]) | Morningglory plant response rating (morningglory; [6]) | Morningglory plant response rating (morningglory; [7]) | Morningglory plant response rating (morningglory; [8]) | Redroot pigweed plant response rating (pigweed; [1]) | Redroot pigweed plant response rating (pigweed; [2]) | Redroot pigweed plant response rating (pigweed; [3]) | Plant response rating, Redroot pigweed (pigweed; [4]) | Plant response rating, Redroot pigweed (pigweed; [5]) | Redroot pigweed plant response rating (pigweed; [6]) | Redroot pigweed plant response rating (pigweed; [7]) | Redroot pigweed plant response rating (pigweed; [8]) | Rape plant response rating (rape; [1]) | Rape plant response rating (rape; [2]) | Rape plant response rating (rape; [3]) | Plant response rating, Rape (rape; [4]) | Plant response rating, Rape (rape; [5]) | Rape plant response rating (rape; [6]) | Rape plant response rating (rape; [7]) | Soybean plant response rating (soybean; [1]) | Soybean plant response rating (soybean; [3]) | Plant response rating, Soybean (soybean; [4]) | Plant response rating, Soybean (soybean; [5]) | Soybean plant response rating (soybean; [6]) | Soybean plant response rating (soybean; [7]) | Sugarbeets plant response rating (sugar beet; [1]) | Sugarbeets plant response rating (sugar beet; [2]) | Sugarbeets plant response rating (sugar beet; [3]) | Plant response rating, Sugarbeets (sugar beet; [4]) | Plant response rating, Sugarbeets (sugar beet; [5]) | Sugarbeets plant response rating (sugar beet; [6]) | Sugarbeets plant response rating (sugar beet; [7]) | Sugarbeets plant response rating (sugar beet; [8]) | Velvetleaf plant response rating (velvetleaf; [1]) | Velvetleaf plant response rating (velvetleaf; [2]) | Velvetleaf plant response rating (velvetleaf; [3]) | Plant response rating, Velvetleaf (velvetleaf; [4]) | Plant response rating, Velvetleaf (velvetleaf; [5]) | Velvetleaf plant response rating (velvetleaf; [7]) | Velvetleaf plant response rating (velvetleaf; [8]) | Nutsedge plant response rating (purple nutsedge; [1]) | Nutsedge plant response rating (purple nutsedge; [2]) | Nutsedge plant response rating (purple nutsedge; [3]) | Nutsedge plant response rating (purple nutsedge; [7]) | Nutsedge plant response rating (purple nutsedge; [8]) | S. Flatsedge plant response rating (smallflower flatsedge; [1]) | S. Flatsedge plant response rating (smallflower flatsedge; [9]) | S. Flatsedge plant response rating (smallflower flatsedge; [11]) | Ducksalad plant response rating (duck salad; [1]) | Ducksalad plant response rating (duck salad; [9]) | Ducksalad plant response rating (duck salad; [10]) | Ducksalad plant response rating (duck salad; [11]) | Barnyardgrass plant response rating (bamyardgrass; [1]) | Barnyardgrass plant response rating (bamyardgrass; [9]) | Barnyardgrass plant response rating (bamyardgrass; [10]) | Barnyardgrass plant response rating (bamyardgrass; [11])
